The text below walks through data of patent US10689366B2, “Compounds for MALT1 degredation” (Cornell University, priority 2016, dated 2020).

For assay [1], the target named is T1, MALT1 (Homo sapiens, UniProt Q9UDY8).
T1 sequence (Q9UDY8 1-824): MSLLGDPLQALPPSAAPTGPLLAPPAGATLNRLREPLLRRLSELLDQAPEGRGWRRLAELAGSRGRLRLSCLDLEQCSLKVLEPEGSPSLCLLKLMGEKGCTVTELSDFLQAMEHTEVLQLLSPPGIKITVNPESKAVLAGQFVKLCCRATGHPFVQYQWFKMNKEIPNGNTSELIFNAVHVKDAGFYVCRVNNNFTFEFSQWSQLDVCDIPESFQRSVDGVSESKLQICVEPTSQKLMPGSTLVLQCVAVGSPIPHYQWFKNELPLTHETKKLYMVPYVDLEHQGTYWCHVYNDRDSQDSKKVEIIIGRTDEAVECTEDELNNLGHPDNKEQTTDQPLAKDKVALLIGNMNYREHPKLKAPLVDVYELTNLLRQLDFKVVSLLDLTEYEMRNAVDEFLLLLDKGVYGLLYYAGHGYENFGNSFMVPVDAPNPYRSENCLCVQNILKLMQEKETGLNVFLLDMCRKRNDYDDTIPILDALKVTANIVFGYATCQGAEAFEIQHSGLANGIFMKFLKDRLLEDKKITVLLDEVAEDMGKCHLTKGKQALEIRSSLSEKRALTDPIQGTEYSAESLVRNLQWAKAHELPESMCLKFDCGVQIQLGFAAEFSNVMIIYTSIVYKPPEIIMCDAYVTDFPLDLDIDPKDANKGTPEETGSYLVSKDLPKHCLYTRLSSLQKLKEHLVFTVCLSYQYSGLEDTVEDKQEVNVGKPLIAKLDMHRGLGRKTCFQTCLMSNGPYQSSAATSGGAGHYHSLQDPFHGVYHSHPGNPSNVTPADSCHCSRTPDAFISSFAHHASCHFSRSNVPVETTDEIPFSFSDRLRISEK
The assay can be described thus: Mechanistic validation of MALT1 degradation in wild type and CRBN knockout 293T cells (Western blot). The class given is cell-based. Also noted: endogenous in cells. Conditions: wild type vs CRBN knockout 293T cells, 10 μM, 24 hours; FIG. 2. How it is done: Wild type and CRBN knockout 293T cells were treated with 10 μM of Example 1 or vehicle for 24 hours, and protein lysates were collected. The protein was analyzed by Western blot and immunoassayed for MALT1, CRBN, and Actin.
Wild type and CRBN knockout 293T cells were treated with 10 μM of Example 1 or vehicle for 24 hours, and protein lysates were collected. 80 μg of protein were analyzed by Western blot and immunoassayed for MALT1, CRBN and Actin.
In general terms: Immunoblotting shows a protein as a band on a membrane.

For assay [2], the target named is T1, MALT1. The assay can be described thus: MALT1 degradation assay (Western blot) in OCI-Ly3 cells. The class given is cell-based. On the set-up: endogenous in cells; host or cells: OCI-Ly3. To be noted: 48 hours, normalized to Actin, relative to vehicle treated cells, read-out: % MALT1 Degradation at 1 μM. The protocol: In the experiments, OCI-Ly3 cells were grown for 6 hours in the presence of the indicated concentrations of Examples 1-6, 9, and 10. Proteins were extracted, analyzed by Western blot, and membranes were immunoblotted for MALT1, CRBN, and Actin. Table 3 provides the results of experimental data obtained from the example compounds of the present disclosure. In particular, OCI-Ly3 cells were grown for 48 hours in the presence of the indicated concentrations of Examples 1-19. Proteins were extracted, analyzed by Western blot, and membranes were immunoblotted for MALT1, CRBN, and Actin. Western blot bands were quantified using Image Lab software. Results were normalized to Actin expression and presented as % MALT1 degradation relative to vehicle treated cells.

As to `C[C@@H](c1c(NC(=O)Nc2cnc(-n3nccn3)c(Cl)c2)cnc2cc(Cl)nn12)N(C)C(=O)CCOCCOCCOCCOCCNc1cccc2c1C(=O)N(C1CCC(=O)NC1=O)C2=O` (stereo partly drawn) [Example 1, N—((S)-1-(2-Chloro-6-(3-(5-chloro-6-(2H-1,2,3-triazol-2-yl)pyridin-3-yl)ureido)pyrazolo[1,5-a]pyrimidin-7-yl)ethyl)-1-((2-(2,6-dioxopiperidin-3-yl)-1,3-dioxoisoindolin-4-yl)amino)-N-methyl-3,6,9,12-tetraoxapentadecan-15-amide], the “CRBN-dependent MALT1 degradation” value at MALT1 [1] was “promoted CRBN-dependent MALT1 degradation”. Also, the % MALT1 degradation at 1 µM on MALT1 [2] is 31 to 50%.

Take `CO[C@@H](C)c1c(NC(=O)Nc2cc(Cl)cnc2OCCNC(=O)CCOCCOCCOCCN2CCN(Cc3ccc(COc4cccc5c4CN([C@H]4CCC(=O)NC4=O)C5=O)cc3)CC2)cnc2cc(Cl)nn12` [Example 19, N-(2-((5-Chloro-3-(3-(2-chloro-7-((S)-1-methoxyethyl)pyrazolo[1,5-a]pyrimidin-6-yl)ureido)pyridin-2-yl)oxy)ethyl)-3-(2-(2-(2-(4-(4-(((2-((S)-2,6-dioxopiperidin-3-yl)-1-oxoisoindolin-4-yl)oxy)methyl)benzyl)piperazin-1-yl)ethoxy)ethoxy)ethoxy)propanamide]: the % MALT1 degradation at 1 µM at MALT1 [2] was above 50%.

Turning to `CO[C@@H](C)c1c(NC(=O)Nc2cc(Cl)cnc2OCCNC(=O)CCOCCNc2cccc3c2CN(C2CCC(=O)NC2=O)C3=O)cnc2cc(Cl)nn12` (stereo partly drawn) [Example 12, N-(2-((5-Chloro-3-(3-(2-chloro-7-((S)-1-methoxyethyl)pyrazolo[1,5-a]pyrimidin-6-yl)ureido)pyridin-2-yl)oxy)ethyl)-3-(2-((2-(2,6-dioxopiperidin-3-yl)-1-oxoisoindolin-4-yl)amino)ethoxy)piopanamide], the % MALT1 degradation at 1 µM at MALT1 [2] lay within 31 to 50%.
